In experiment [1] the test system is hSTING-R232 in THP1-Dual KI-hSTING-R232 Cells. The experiment can be described thus: STING cellular assay in THP1-Dual KI-hSTING-R232 cells (Lucia luciferase IRF reporter). The class given is cell-based. Particulars: Homo sapiens, 24 h incubation, QUANTI-Luc readout, 1 nM-10 μM. The text has this:
(§1) STING Cellular Assay in THP1-Dual™ Cells
(§2) THP1-Dual™ cells were derived from the human THP-1 monocyte cell line by stable integration of two inducible reporter constructs. THP1-Dual™ cells feature the Lucia luciferase gene, a new secreted luciferase reporter gene, under the control of an ISG54 (interferon-stimulated gene) minimal promoter in conjunction with five interferon (IFN)-stimulated response elements. THP1-Dual™ cells also express a secreted embryonic alkaline phosphatase (SEAP) reporter gene driven by an IFN-β minimal promoter fused to five copies of the NF-κB consensus transcriptional response element and three copies of the c-Rel binding site. As a result, THP1-Dual™ cells allow the simultaneous study of the NF-κB pathway, by monitoring the activity of SEAP, and the interferon regulatory factor (IRF) pathway, by assessing the activity of Lucia luciferase. Both reporter proteins are readily measurable in the cell culture supernatant when using QUANTI-Blue™, a SEAP detection reagent, and QUANTI-Luc™, a Lucia luciferase detection reagent.
(§3) Distinct variants of human STING (hSTING) that affect CDN recognition and signal transduction have been identified: • R232 (R71-G230-R232-R293): the most prevalent in the human population (˜60%). Referred as the “wild-type” or 232R-RGR allele2. • HAQ (H71-A230-R232-Q293): contains three non-synonymous single nucleotide substitutions; R71H, G230A and R293Q. This allele, found in ˜20% of the population, is less sensitive to CDNs than the “wild-type” allele2.
(§4) Growth Medium: RPMI 1640, 2 mM L-glutamine, 25 mM HEPES, 10% heat-inactivated fetal bovine serum (30 min at 56° C.), 100 μg/mL Normocin™, Pen-Strep (100 U/mL-100 μg/mL)
(§5) 1. After cells have recovered (after at least one passage), maintain and subculture the cells in growth medium. (To maintain selection pressure, add 10 μg/mL of blasticidin and 100 μg/mL of Zeocin™ to the growth medium every other passage.) 2. Pass the cells every 3 days by inoculating 7×10^5 cells/ml.
(§6) Experimental Procedure • 1. Add 180 μL of cell suspension (˜100,000 cells) per well of a flat-bottom 96-well plate (costar 3599). • 2. Then compounds were added with serial dilutions over 10 points with a 1 nM-10 μM final concentration range in 0.10% DMSO/growth medium. • 3. Incubate the plate for 24 h at 37° C., 5% CO2. • 4. Set the BMG PHERAstar FSX instrument with the following parameters: 50 μL of injection, end-point measurement with a 4 second start time and 0.1 second reading time. • 5. Pipet 10 μL of THP1-Dual™ cell culture medium per well into a 96-well white opaque plate (Corning 3903). • 6. Add 50 μL of QUANTI-Luc assay solution to each well and gently tap the plate several times to mix. Proceed immediately with the measurement.

A further experiment has as its system STING in THP1-Dual Cells. The experiment is described as follows: STING cellular assay in THP1-Dual cells (Lucia luciferase IRF reporter). The class given is cell-based. Particulars: Homo sapiens, 24 h incubation, QUANTI-Luc readout, 1 nM-10 μM.
Text: as §1, §2, §3, §4, §5, §6

Structures are written as SMILES. Where only a bound is given, the exact number is not on record here.

Consider `CCn1nc(C)cc1-c1nc(Cl)c2c3cc(C(N)=O)cc(OC)c3n(C/C=C/Cn3c4nc(-c5cc(C)nn5CC)nc(Cl)c4c4cc(C(N)=O)cc(OCCCN5CCOCC5)c43)c2n1` [Example 3, (E)-9-(4-(6-carbamoyl-4-chloro-2-(1-ethyl-3-methyl-1H-pyrazol-5-yl)-8-(3-morpholinopropoxy)-9H-pyrimido[4,5-b]indol-9-yl)but-2-en-1-yl)-4-chloro-2-(1-ethyl-3-methyl-1H-pyrazol-5-yl)-8-methoxy-9H-pyrimido[4,5-b]indole-6-carboxamide; trifluoroacetic acid], for which the values for the EC50 (in experiment [1]; in the experiment with STING in THP1-Dual Cells) were 3.7 nM and 182 nM, respectively.

In the case of `CCn1nc(C)cc1-c1nc(Cl)c2c3cc(C(N)=O)cc(OC)c3n(C/C=C/Cn3c4nc(-c5cc(C)nn5CC)nc(Cl)c4c4cc(C#N)cc(OCCCN5CCOCC5)c43)c2n1` [Example 1, (E)-4-chloro-9-(4-(4-chloro-6-cyano-2-(1-ethyl-3-methyl-1H-pyrazol-5-yl)-8-(3-morpholinopropoxy)-9H-pyrimido[4,5-b]indol-9-yl)but-2-en-1-yl)-2-(1-ethyl-3-methyl-1H-pyrazol-5-yl)-8-methoxy-9H-pyrimido[4,5-b]indole-6-carboxamide], the EC50 (in experiment [1]; in the experiment on STING in THP1-Dual Cells) was above 10000 nM each time.

As to `CCn1nc(C)cc1-c1ncc2c3cc(C(N)=O)cc(OC)c3n(C/C=C/Cn3c4nc(-c5cc(C)nn5CC)ncc4c4cc(C(N)=O)cc(OCCCN5CCOCC5)c43)c2n1` [Example 4, (E)-9-(4-(6-carbamoyl-2-(1-ethyl-3-methyl-1H-pyrazol-5-yl)-8-(3-morpholinopropoxy)-9H-pyrimido[4,5-b]indol-9-yl)but-2-en-1-yl)-2-(1-ethyl-3-methyl-1H-pyrazol-5-yl)-8-methoxy-9H-pyrimido[4,5-b]indole-6-carboxamide; formic acid], the EC50 in experiment [1] stood at 1.5 nM; with STING in THP1-Dual Cells, 3.5 nM.

On to `CCn1nc(C)cc1-c1nc(O)c2c3cc(C(N)=O)cc(OC)c3n(C/C=C/Cn3c4nc(-c5cc(C)nn5CC)nc(O)c4c4cc(C(N)=O)cc(OCCCN5CCOCC5)c43)c2n1` [Example 2, (E)-9-(4-(6-carbamoyl-2-(1-ethyl-3-methyl-1H-pyrazol-5-yl)-4-hydroxy-8-(3-morpholinopropoxy)-9H-pyrimido[4,5-b]indol-9-yl)but-2-en-1-yl)-2-(1-ethyl-3-methyl-1H-pyrazol-5-yl)-4-hydroxy-8-methoxy-9H-pyrimido[4,5-b]indole-6-carboxamide; trifluoroacetic acid], for which the EC50 is 3230 nM in experiment [1] and above 10000 nM in the experiment on STING in THP1-Dual Cells.

(Values after patent US20220289768A1, “HETEROCYCLIC COMPOUNDS AS STING MODULATORS” (BEIGENE, LTD., priority 2019, published 2022).)
